Assay results as given in patent publication US20260176289A1, “SMALL MOLECULE INHIBITORS OF KRAS PROTEINS” (Merck Sharp & Dohme LLC, priority 2022, published 2026).
pIC50: −log10 of the molar value. Read-outs that look alike come from different tables or passages of the source.

Columns and labels:
[1] = target: KRAS-G12D (Homo sapiens, UniProt P01116, G12D); assay: SOS-catalyzed nucleotide exchange assay (Procedure A, TR-FRET), KRAS-G12D; assay type: biochemical; details: nucleotide exchange, read-out: KRAS G12D GNE IC50
How it was run: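 Signal ratio (520/495 nm, excitation 340 nm) reports Bodipy-GDP retention on biotinylated RAS after SOS-catalyzed exchange with 3 mM GTP. SOS was 40 nM, except 160 nM for G12V. Room-temperature exchange lasted 60 min (90 min for G12V), following a 60 min compound preincubation.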

[2] = target: KRAS-G12C (C51S/C80L/C118S) (Homo sapiens, UniProt P01116, C118S/C51S/C80L/G12C); assay: SOS-catalyzed nucleotide exchange assay (Procedure A, TR-FRET), KRAS-G12C; assay type: biochemical; details: nucleotide exchange, Procedure A; read-out: KRAS G12C GNE IC50
How it was run: (§1)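 Biotinylated RAS (KRAS-G12C carries C51S/C80L/C118S; others WT background) preloaded with Bodipy-GDP plus Tb-streptavidin, preincubated with compound 60 min at RT, then human SOS and 3 mM GTP added. Final RAS/SOS: G12C 3 nM/40 nM, 60 min; WT 1 nM/40 nM, 60 min; G12V 1.25 nM/160 nM, 90 min; NRAS 1.25 nM/40 nM, 60 min. TR-FRET 520/495 ratio normalized to DMSO and saturating inhibitor; 10-point curves fit four-parameter logistic.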

[3] = target: KRAS-G12V (Homo sapiens, UniProt P01116, G12V); assay: SOS-catalyzed nucleotide exchange assay (Procedure A, TR-FRET), KRAS-G12V; assay type: biochemical; details: nucleotide exchange, read-out: KRAS G12V GNE IC50
How it was run: as §1

[4] = test system: PANC08.13 cells; assay: Cellular phospho-ERK assay, PANC08.13 cells (homozygous KRAS-G12D); assay type: cell-based; details: Homo sapiens, PANC-08-13, KRAS-G12D, 2 hours, read-out: PANC-08.13 pERK IC50
Description: Procedure for Cellular Phospho-ERK Assay in KRAS Wild Type and Mutant (G12D, G12V) Cell Lines
MKN-1 cells (JCRB JCRB0252) containing amplified wild-type KRAS, were cultured in growth medium that contains RPMI 1640-GlutaMAX™-I (ThermoFisher Scientific 61870) containing 10% heat inactivated fetal bovine serum (ThermoFisher Scientific 10091148), 1 mM sodium pyruvate and 10 mM HEPES. PANC08.13 cells (ATCC® CRL-2551™), containing homozygous KRAS-G12D activating mutation, were cultured in growth medium made of RPMI1640-GlutaMAX™-I (ThermoFisher Scientific 61870) containing 15% heat inactivated fetal bovine serum (ThermoFisher Scientific 10091148)). AsPC-1 cells (ATCC® CRL-1682™), containing homozygous KRAS-G12D activating mutation, were cultured in T150 flask in growth medium (RPMI medium 1640-GlutaMAX™-I (ThermoFisher Scientific 61870) containing 10% fetal bovine serum (ThermoFisher Scientific 10091148)). SW620 cells (ATCC® […]), containing homozygous KRAS-G12V activating mutation, were cultured in growth medium that contains RPMI 1640-GlutaMAX™-I (ThermoFisher Scientific 61870) containing 10% heat inactivated fetal bovine serum (ThermoFisher Scientific 10091148).
Cells for the assay were harvested in growth medium after TrypLE (ThermoFisher scientific 12604021) digestion and were seeded in a 384-well collagen coated cell culture plate (Corning 356702) at a density of 10,000-15,000 cells/20 μL/well, and incubated at 37° C., 5% CO2 overnight. The compound (with 10 mM stock concentration) dose-response titrations were prepared [30 μM final ERK detection assay concentration and 1:3 dilutions, 10-point dose response] and appropriate amounts (270 nL) of test compounds were dispensed in a 384-well intermediate plate using an Echo 550 liquid handler. 30 μL/well of RPMI medium 1640-GlutaMAX™—I was added to the intermediate plate and the contents of the intermediate plate (10 μL/well) were then transferred to the 384-well collagen coated cell culture plate, which was incubated at 37° C., 5% CO2 for 2 hours. After removal of medium from the collagen coated cell culture plate, cells were lysed in lysis buffer from Alpha SureFire® Ultra™ Multiplex p-ERK and total ERK assay kit (PerkinElmer MPSU-PTERK) containing Halt™ Protease and Phosphatase inhibitor cocktail (ThermoFisher Scientific 78446) at room temperature with constant shaking at 300 rpm for 30 minutes. The cell lysates were then transferred to an OptiPlate-384 plate (PerkinElmer 6005620), and the phosphorylation of ERK (p-ERK) and total ERK levels were detected by Alpha SureFire® Ultra™ Multiplex p-EEK kit and total ERK assay kit (PerkinElmer MPSU-PTERK) following the manufacturer's protocol. Assay plates were read on a En Vision Multimode Plate Reader (PerkinElmer), and the ratio of p-ERK vs. total ERK in each well was used as the final readout. Dose response curves were analyzed using a 4-parameter logistic model to calculate IC50 values using Spotfire software.

[5] = test system: AsPC-1 cells; assay: Cellular phospho-ERK assay, AsPC-1 cells (homozygous KRAS-G12D); assay type: cell-based; details: read-out: AsPC1 pERK IC50
How it was run: (§2)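 10k–15k cells/well, o/n attach; cpd 2 h, 37 °C, 10-pt 1:3 from 30 μM final; lyse with protease/phosphatase inhibitors 30 min RT; multiplex SureFire p-ERK + total ERK; IC50 via 4PL on ratio.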

[6] = target: KRAS-WT (Homo sapiens, UniProt P01116); assay: SOS-catalyzed nucleotide exchange assay (Procedure A, TR-FRET), KRAS-WT; assay type: biochemical; details: nucleotide exchange, read-out: KRAS WT GNE IC50
How it was run: as §1

[7] = test system: MKN-1 cells; assay: Cellular phospho-ERK assay, MKN-1 cells (amplified wild-type KRAS); assay type: cell-based; details: read-out: MKN1 pERK IC50
How it was run: as §2

[8] = test system: SW620 cells; assay: Cellular phospho-ERK assay, SW620 cells (homozygous KRAS-G12V); assay type: cell-based; details: read-out: SW620 pERK IC50
How it was run: as §2

[9] = target: KRAS-G13D (Homo sapiens, UniProt P01116, G13D); assay: SOS-catalyzed nucleotide exchange assay (Procedure A, TR-FRET), KRAS-G13D; assay type: biochemical; details: nucleotide exchange, Procedure A; read-out: KRAS G13D GNE IC50
[10] = Homo sapiens, ASPC1, 2 h, KRAS-G12D, 2 hours
[11] = Homo sapiens, 2 hours compound incubation
[12] = Homo sapiens, SW-620, 2 hours compound incubation
[13] = Homo sapiens, ASPC1, 2 h, 2 hours compound incubation
[14] = Homo sapiens, amplified wild-type KRAS, 2 hours
[15] = Homo sapiens, SW-620, KRAS-G12V, 2 hours

| Compound | pIC50 [1] | pIC50 [2] | pIC50 [3] | pIC50 [4] | pIC50 [5, 10] | pIC50 [6] | pIC50 [7, 11] | pIC50 [8, 12] | pIC50 [5, 13] | pIC50 [9] | pIC50 [7, 14] | pIC50 [8, 15] | pIC50 ([7]; 2 hours compound incubation) | pIC50 ([8]; 2 hours compound incubation) | pIC50 ([5]; 2 hours compound incubation) |
| --- | --- | --- | --- | --- | --- | --- | --- | --- | --- | --- | --- | --- | --- | --- | --- |
| Cc1cc2[nH]ncc2c(-c2nccc3c4c(N5CCCC6(CC(=O)N6)C5)nc(OC[C@@]56CCCN5C[C@H](F)C6)nc4n(C)c23)c1C(F)(F)F (single isomer, unassigned) [Ex-21] | 7.23 | 7.60 | 7.46 | 5.73 | 5.49 | 6.34 |  |  |  |  |  |  |  |  |  |
| C[C@@]1(O)COCCN(c2nc(OC[C@@]34CCCN3C[C@@]3(CC3(F)F)C4)nc3sc4c(-c5c(C6CC6)c(Cl)cc6[nH]ncc56)nccc4c23)C1 [Ex-211, (6S)-4-(8-(6-chloro-5-cyclopropyl-1H-indazol-4-yl)-2-(((1S,7a′S)-2,2-difluorodihydro-1′H,3′H-spiro[cyclo-propane-1,2′-pyrrol-izin]-7a′(5′H)-yl)-methoxy)pyrido [4′,3′:4,5]thieno[2,3-d]pyrimidin-4-yl)-6-methyl-1,4-oxaze-pan-6-ol] | 8.23 | 7.34 | 7.92 |  |  | 7.78 | 7.08 | 7.31 | 7.25 | 7.82 |  |  |  |  |  |
| Cc1cc2[nH]ncc2c(-c2nccc3c2sc2nc(OC[C@@]45CCCN4C[C@H](F)C5)nc(N4CCOC[C@@](C)(O)C4)c23)c1C12CC(C1)C2 [Ex-43, (6S)-4-(8-(5-(bicyclo[1.1.1]pentan-1 yl)-6-methy1-1H-indazol-4-yl)-2-(((2R,7aS)-2-fluorotetrahydro-1H-pyrrolizin-7a(5H)-yl)methoxy)pyrido[4′,3′:4,5]thi-eno[2,3-d]pyrimidin-4-yl)-6-methyl-1,4-oxazepan-6-ol] | 7.86 | 7.61 | 7.57 |  | 6.89 | 7.35 |  |  |  | 7.76 | 6.84 | 7.21 |  |  |  |
| C[C@@]1(O)COCCN(c2nc(OC[C@@]34CCCN3C[C@H](F)C4)nc3sc4c(-c5c(C6CC6)c(Cl)cc6[nH]ncc56)nccc4c23)C1 [Ex-144, (6S)-4-(8-(6-chloro-5-cyclopropyl-1H-indazol-4-yl)-2-(((2R,7aS)-2-fluoro-tetrahydro-1H-pyr-rolizin-7a(5H)-yl)-methoxy)pyrido [4′,3′:4,5]thieno[2,3-d]pyrimidin-4-yl)-6-methyl-1,4-oxaze-pan-6-ol] | 8.21 | 7.34 | 7.84 |  |  | 7.84 | 7.27 | 7.14 | 7.38 | 7.97 |  |  |  |  |  |
| Cc1cc2[nH]ncc2c(-c2nncc3c2sc2nc(OC[C@@]45CCCN4C[C@H](F)C5)nc(N4CCOC[C@@](C)(O)C4)c23)c1C1CC1 [Ex-279, (6S)-4-(8-(5-cyclopropyl-6-methyl-1H-indazol-4-yl)-2-(((2R,7aS)-2-fluorotetrahydro-1H-pyrrolizin-7a(5H)-yl)methoxy)pyrimi-do[5′,4′:4,5]thieno[2,3-d]pyridazin-4-yl)-6-methyl-1,4-oxazepan-6-ol] | 8.29 | 7.01 | 7.80 |  | 6.94 | 7.87 |  |  |  | 8.12 | 7.37 | 7.00 |  |  |  |
| Cc1cc2[nH]ncc2c(-c2nccc3c2sc2nc(OC[C@@]45CCCN4C[C@H](F)C5)nc(N4CCOC[C@@](C)(O)C4)c23)c1C1CC1 [Ex-141, (6S)-4-(8-(5-cyclo-propyl-6-methyl-1H-indazol-4-yl)-2-(((2R,7aS)-2-fluoro-tetrahydro-1H-pyr-rolizin-7a(5H)-yl)-methoxy)pyrido [4′,3′:4,5]thieno[2,3-d]pyrimidin-4-yl)-6-methyl-1,4-oxaze-pan-6-ol] | 8.13 | 7.06 | 7.78 |  |  | 7.74 | 7.27 | 6.88 | 7.42 | 7.84 |  |  |  |  |  |
| (6S)-4-(8-(6-chloro- 5-cyclopropyl-1H- indazol-4-yl)-2- (((6'R,7a′R)-6′- fluorodihydro- 1′H,3′H-spiro[cyclo- propane-1,2′-pyr- rolizin]-7a′(5′H)- yl)methoxy)pyrido [4′,3′:4,5]thieno[2,3- d]pyrimidin-4-yl)-6- methyl-1,4-oxaze- pan-6-ol [Ex-218] | 8.47 | 7.11 | 8.06 |  |  | 8.17 |  |  |  | 8.13 |  |  | 7.43 | 7.69 | 7.50 |
| C[C@@]1(O)COCCN(c2nc(OC[C@@]34CCCN3C/C(=C\F)C4)nc3sc4c(-c5c(C6CC6)c(Cl)cc6[nH]ncc56)nccc4c23)C1 [Ex-208, (6S)-4-(8-(6-chloro-5-cyclopropyl-1H-indazol-4-yl)-2-(((S,Z)-2-(fluoromethylene)tetrahydro-1H-pyrrolizin-7a(5H)-yl)methoxy)pyrido[4′,3′:4,5]thieno[2,3-d]pyrimidin-4-yl)-6-methyl-1,4-oxazepan-6-ol] | 8.61 | 7.35 | 7.95 |  |  | 8.24 | 7.20 | 7.77 | 7.69 | 7.69 |  |  |  |  |  |
| C[C@@]1(O)COCCN(c2nc(OC[C@@]34CCCN3C/C(=C\F)C4)nc3sc4c(-c5c(C6(F)CC6)c(C(F)(F)F)cc6[nH]ncc56)nccc4c23)C1 [Ex-56, (6S)-4-(8-(5-(1-fluorocyclopropyl)-6-(trifluoromethyl)-1H-indazol-4-yl)-2-(((S,Z)-2-(fluoromethylene)tetrahy-dro-1H-pyrrolizin-7a(5H)-yl)methoxy)pyrido[4′,3′:4,5]thi-eno[2,3-d]pyrimidin-4-yl)-6-methyl-1,4-oxazepan-6-ol] | 8.04 | 6.89 | 7.49 |  | 7.31 | 7.58 |  |  |  | 7.65 | 7.34 | 7.24 |  |  |  |
